Data taken from US9296776B2, “Substituted nucleoside derivatives with antiviral and antimicrobial properties” (Eastern Virginia Medical School, priority 2007, dated 2016).
≈ marks a conversion by molar mass, not a printed value. Like-named read-outs stand apart in the source and are kept apart here.

Columns and labels:
[1] = test system: Cell-associated HIV-1, SupT1 (IIIB); test: Single-round infection assay, cell-associated virus SupT1 (IIIB); assay type: cell-based; conditions: for IC50 Cell-Associated Virus SupT1 (IIIB) / IC50: Table 1, 2 h incubation, wash, 48 h culture; for IC50: read-out: IC50 Cell-Associated Virus SupT1 (IIIB)
H. ducreyi Strain HMC 64 = test: Antibacterial activity (MIC), strain HMC 64; assay type: cell-based, Haemophilus ducreyi
[2] = test system: HIV-1 BaL (cell-free virus); test: Single-round infection assay, cell-free virus BaL; assay type: cell-based; conditions: for IC50 Cell-Free Virus BaL / IC50: Table 1, 2 h incubation, wash, 48 h culture; for IC50: read-out: IC50 Cell-Free Virus BaL
H. ducreyi Strain HMC 62 = test: Antibacterial activity (MIC), strain HMC 62; assay type: cell-based, Haemophilus ducreyi
H. ducreyi Strain HMC56 = test: Antibacterial activity (MIC), strain HMC56; assay type: cell-based, Haemophilus ducreyi
[3] = test system: HIV-1 IIIB (cell-free virus); test: microbe, parasite or virus in culture; assay type: cell-based; conditions: for IC50 Cell-Free Virus IIIB / IC50: Table 1; for IC50: read-out: IC50 Cell-Free Virus IIIB
[4] = test system: HIV-1 clinical isolate R5 = 92TH014; test: Antiviral activity against HIV-1 clinical isolate R5, RT endpoint; assay type: cell-based
[5] = test system: Multidrug resistant virus 7324-1; test: Antiviral activity against multidrug resistant HIV, RT endpoint; assay type: cell-based, HIV-1
[6] = 2 h incubation, wash, 48 h culture
[7] = Table 2, 6 h incubation then 6 days
[8] = Table 2, MDR = 7324-1, RT endpoint, 6 h incubation then 6 days
[9] = Human immunodeficiency virus 1, IIIB, SUP-T1
[10] = [Haemophilus] ducreyi, read-out: MIC (minimum inhibitory concentration)
[11] = Human immunodeficiency virus 1, BAL
[12] = Human immunodeficiency virus 1, IIIB, 2 h incubation, wash, 48 h culture

CCCCCSCCCCCCCC(=O)OC[C@H]1O[C@@H](n2cc(C)c(=O)[nH]c2=O)C[C@@H]1N=[N+]=[N-] [3′-azido-2′,3′-dideoxy-5′-O-(9-thiatertradecanoyl)thymidine]
IC50 Cell-Associated Virus SupT1 (IIIB) [1]: 42.0 mg/L (≈ 84.7 µM) | MIC (minimum inhibitory concentration) (H. ducreyi Strain HMC 64): 750 mg/L (≈ 1510 µM) | IC50 Cell-Free Virus BaL [2]: 8.1 ( μg/mL | MIC (minimum inhibitory concentration) (H. ducreyi Strain HMC 62): 250 mg/L (≈ 504 µM) | MIC (minimum inhibitory concentration) (H. ducreyi Strain HMC56): 250 mg/L (≈ 504 µM) | IC50 Cell-Free Virus IIIB [3, 6]: 3.7 mg/L (≈ 7.47 µM)

Cc1cn([C@H]2C=C[C@@H](COC(=O)CCCCCCCCCCCN=[N+]=[N-])O2)c(=O)[nH]c1=O [5′-O-(12-azidodecanoyl)-2′,3′-didehydro-2′,3′-dideoxythymidine]
IC50 Cell-Associated Virus SupT1 (IIIB) [1]: 10.0 mg/L (≈ 22.3 µM) | IC50 Cell-Free Virus BaL [2]: 1.4 µg/mL (≈ 3.13 µM) | IC50 Cell-Free Virus IIIB [3, 6]: 3.0 mg/L (≈ 6.7 µM)

Cc1cn([C@H]2C[C@H](F)[C@@H](CO)O2)c(=O)[nH]c1=O [3′-fluoro-2′,3′-deoxythymidine (FLT), 3′-fluoro-2′,3′-deoxythymidine, reference compound]
IC50 Cell-Associated Virus SupT1 (IIIB) [1]: >100 mg/L | IC50 Cell-Free Virus BaL [2]: 0.1 µg/mL (≈ 0.409 µM) | IC50 Cell-Free Virus IIIB [3, 6]: 0.2 mg/L (≈ 0.819 µM) | EC50 Cell-free HIV-1 (IIIB) ([3]; Table 8, 2 h incubation, wash, 48 h culture): 0.2 mg/L (≈ 0.819 µM) | EC50 ([3]; Table 8, 2 h incubation, wash, 48 h culture, read-out: EC50 Cell-free HIV-1 (IIIB)): 0.8 µM

CCSCCCCCCCCCCCC(=O)OC[C@H]1O[C@@H](n2cc(C)c(=O)[nH]c2=O)C[C@@H]1F [3′-fluoro-2′,3′-dideoxy-5′-O-(13-thiapentadecanoyl)thymidine]
IC50 [4, 7]: 0.002 mg/L (≈ 0.00411 µM) | IC50 Cell-Associated Virus SupT1 (IIIB) [1]: 1.1 mg/L (≈ 2.26 µM) | IC50 [5, 8]: 0.002 mg/L (≈ 0.00411 µM) | MIC (minimum inhibitory concentration) (H. ducreyi Strain HMC 64): 125 mg/L (≈ 257 µM) | IC50 Cell-Free Virus BaL [2]: <0.1 µg/mL | MIC (minimum inhibitory concentration) (H. ducreyi Strain HMC 62): 125 mg/L (≈ 257 µM) | MIC (minimum inhibitory concentration) (H. ducreyi Strain HMC56): 125 mg/L (≈ 257 µM) | IC50 Cell-Free Virus IIIB [3, 6]: 0.5 mg/L (≈ 1.03 µM)

Cc1cn([C@H]2C[C@H](N=[N+]=[N-])[C@@H](CO)O2)c(=O)[nH]c1=O [3′-azido-2′,3′-dideoxythymidine (AZT), 3′-azido-2′,3′-dideoxythymidine, reference compound]
CC50 (in vitro): > 100 mg/L | IC50 ([4]; Human immunodeficiency virus 1, Table 2, 6 h incubation then 6 days, read-out: IC50): 0.02 mg/L (≈ 0.0748 µM) | IC50 [1, 9]: > 100 mg/L | EC50 ([1]; Human immunodeficiency virus 1, IIIB, SUP-T1, Table 4): > 100 mg/L | IC50 ([5]; Human immunodeficiency virus 1): 0.33 mg/L (≈ 1.23 µM) | MIC (H. ducreyi Strain HMC 64; [10]): 500 mg/L (≈ 1870 µM) | IC50 [2, 11]: 0.8 mg/L (≈ 2.99 µM) | EC50 ([2]; Human immunodeficiency virus 1, BAL, Table 4): 4.2 mg/L (≈ 15.7 µM) | MIC (H. ducreyi Strain HMC 62; [10]): 750 mg/L (≈ 2810 µM) | MIC (H. ducreyi Strain HMC56; [10]): 125 mg/L (≈ 468 µM) | IC50 [3, 12]: 9.2 mg/L (≈ 34.4 µM) | EC50 ([3]; Human immunodeficiency virus 1, IIIB, Table 4, read-out: EC50 Cell-Free Virus IIIB): 2.4 mg/L

CCSCCCCCCCCCCC(=O)OC[C@H]1O[C@@H](n2cc(C)c(=O)[nH]c2=O)C[C@@H]1N=[N+]=[N-] [3′-azido-2′,3′-dideoxy-5′-O-(11-thioethylundecanoyl)thymidine]
IC50 Cell-Associated Virus SupT1 (IIIB) [1]: 44.9 mg/L (≈ 90.6 µM) | IC50 Cell-Free Virus BaL [2]: 2.6 µg/mL (≈ 5.25 µM) | IC50 Cell-Free Virus IIIB [3, 6]: 3.8 mg/L (≈ 7.67 µM)

CCCCCCCCCCCCCCOC[C@H]1O[C@@H](n2cc(C)c(=O)[nH]c2=O)C[C@@H]1N=[N+]=[N-] [3′-azido-2′,3′-dideoxy-5′-O-(tetradecyl)thymidine]
IC50 Cell-Associated Virus SupT1 (IIIB) [1]: >100 mg/L | IC50 Cell-Free Virus BaL [2]: 12.8 µg/mL (≈ 27.6 µM) | IC50 Cell-Free Virus IIIB [3, 6]: 57.8 mg/L (≈ 125 µM)

Cc1cn([C@H]2C[C@H](F)[C@@H](COC(=O)CCCCCCCCCCCN=[N+]=[N-])O2)c(=O)[nH]c1=O [3′-fluoro-2′,3′-dideoxy-5′-O-(12-azidododecanoyl)thymidine]
IC50 [4, 7]: 0.003 mg/L (≈ 0.00642 µM) | IC50 Cell-Associated Virus SupT1 (IIIB) [1]: 5.9 mg/L (≈ 12.6 µM) | IC50 [5, 8]: 0.003 mg/L (≈ 0.00642 µM) | MIC (minimum inhibitory concentration) (H. ducreyi Strain HMC 64): 125 mg/L (≈ 267 µM) | IC50 Cell-Free Virus BaL [2]: 0.2 µg/mL (≈ 0.428 µM) | MIC (minimum inhibitory concentration) (H. ducreyi Strain HMC 62): 125 mg/L (≈ 267 µM) | MIC (minimum inhibitory concentration) (H. ducreyi Strain HMC56): 500 mg/L (≈ 1070 µM) | IC50 Cell-Free Virus IIIB [3, 6]: 0.4 mg/L (≈ 0.856 µM)

CCCCCCCCCCCCCC(=O)OC[C@H]1O[C@@H](n2cc(C)c(=O)[nH]c2=O)C[C@@H]1F [3′-fluoro-2′,3′-dideoxy-5′-O-(tetradecanoyl)thymidine]
IC50 [4, 7]: 0.003 mg/L (≈ 0.0066 µM) | IC50 Cell-Associated Virus SupT1 (IIIB) [1]: 2.9 mg/L (≈ 6.38 µM) | IC50 [5, 8]: 0.002 mg/L (≈ 0.0044 µM) | IC50 Cell-Free Virus BaL [2]: 0.5 µg/mL (≈ 1.1 µM) | IC50 Cell-Free Virus IIIB [3, 6]: 0.3 mg/L (≈ 0.66 µM)

Sodium cellulose sulfate-succinate-AZT (17.2%) [CS-Suc-AZT]
EC50 Cell-Associated Virus SupT1-IIIB ([1]; Table 4): 74.8 mg/L | EC50 Cell-Free Virus BaL ([2]; Table 4): 9.9 mg/L | EC50 Cell-Free Virus IIIB ([3]; Table 4): 2.2 mg/L

Nc1nc(=O)n([C@H]2CS[C@@H](CO)O2)cc1F [2′,3′-dideoxy-5-fluoro-3′-thiacytidine, reference compound]
IC50 [1, 9]: 21.9 mg/L (≈ 88.6 µM) | IC50 [2, 11]: 0.18 mg/L (≈ 0.728 µM) | IC50 [3, 12]: 0.48 mg/L (≈ 1.94 µM)
